Measured values: PMC11570842 (The Journal of Biological Chemistry, 2024)

Biological target: T1, Ubp2 (Saccharomyces cerevisiae, UniProt Q01476)
T1 sequence (Q01476 1-1272): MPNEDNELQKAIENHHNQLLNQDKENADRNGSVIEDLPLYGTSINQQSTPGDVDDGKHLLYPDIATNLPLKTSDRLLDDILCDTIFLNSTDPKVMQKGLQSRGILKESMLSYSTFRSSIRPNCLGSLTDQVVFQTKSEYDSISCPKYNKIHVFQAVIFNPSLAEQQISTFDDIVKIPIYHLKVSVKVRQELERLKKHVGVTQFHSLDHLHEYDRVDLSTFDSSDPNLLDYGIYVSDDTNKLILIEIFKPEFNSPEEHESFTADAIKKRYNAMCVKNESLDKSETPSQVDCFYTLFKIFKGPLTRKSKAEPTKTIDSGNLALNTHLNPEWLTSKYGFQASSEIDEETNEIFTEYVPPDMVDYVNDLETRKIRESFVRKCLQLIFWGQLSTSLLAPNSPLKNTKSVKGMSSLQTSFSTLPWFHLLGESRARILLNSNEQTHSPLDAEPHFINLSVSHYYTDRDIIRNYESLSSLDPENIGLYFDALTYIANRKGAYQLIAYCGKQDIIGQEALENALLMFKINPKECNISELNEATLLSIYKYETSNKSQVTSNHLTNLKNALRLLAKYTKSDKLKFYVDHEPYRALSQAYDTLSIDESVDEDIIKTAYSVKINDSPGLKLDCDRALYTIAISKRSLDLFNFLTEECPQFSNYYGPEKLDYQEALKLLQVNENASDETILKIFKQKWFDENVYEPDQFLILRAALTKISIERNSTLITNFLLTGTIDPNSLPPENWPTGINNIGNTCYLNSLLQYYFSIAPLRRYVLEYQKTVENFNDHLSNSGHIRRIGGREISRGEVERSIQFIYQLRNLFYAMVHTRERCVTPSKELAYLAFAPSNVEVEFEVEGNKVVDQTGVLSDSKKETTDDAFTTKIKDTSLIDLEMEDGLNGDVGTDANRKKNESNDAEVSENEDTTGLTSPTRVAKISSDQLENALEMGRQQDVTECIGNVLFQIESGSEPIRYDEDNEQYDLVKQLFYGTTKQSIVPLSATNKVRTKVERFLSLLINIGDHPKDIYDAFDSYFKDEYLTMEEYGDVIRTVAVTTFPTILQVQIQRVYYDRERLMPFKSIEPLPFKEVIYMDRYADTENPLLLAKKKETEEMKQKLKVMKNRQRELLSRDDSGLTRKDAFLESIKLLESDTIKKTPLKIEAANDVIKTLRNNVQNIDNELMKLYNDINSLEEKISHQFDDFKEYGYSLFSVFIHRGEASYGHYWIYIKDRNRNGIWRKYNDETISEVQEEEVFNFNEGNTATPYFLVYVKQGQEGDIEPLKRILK
Settings: 100 uM PR-619, 5 min preincubation; 0.75 uM Ub-Rho, 50 mM Tris-HCl pH 7.5, 150 mM NaCl, 30 C; activity abrogated

N#CSc1cc(SC#N)c(N)nc1N [PR-619]
fluorogenic Ub-rhodamine 110 cleavage: pan DUB inhibitor PR-619 and the cysteine alkylator iodoacetamide (IAA) abrogated Ubp2 enzymatic activity
